Data taken from paper PMC9741652, “CRL2^ZER1/ZYG11B recognizes small N-terminal residues for degradation” (Nature Communications, 2022).
Values belong to the substance of their own block, whether it stands above or below them. No end group written: not given here.

Key:
[1] = target: T1, ZYG11B (residues 490–728) (Homo sapiens, UniProt Q9C0D3); experiment: ITC of peptides titrated into ZYG11B; settings: ZYG11B residues 490–728, 20 mM Tris-HCl pH 7.5, 150 mM NaCl, 16 °C, repeated at least twice, NB = no detectable binding
T1 construct: ZYG11B (residues 490–728) bearing an N-terminal SELF; 8xHis-SUMO (N, cleaved yes); made in house; host or cells: E. coli BL21 (DE3)
T1 sequence (Q9C0D3 490-728): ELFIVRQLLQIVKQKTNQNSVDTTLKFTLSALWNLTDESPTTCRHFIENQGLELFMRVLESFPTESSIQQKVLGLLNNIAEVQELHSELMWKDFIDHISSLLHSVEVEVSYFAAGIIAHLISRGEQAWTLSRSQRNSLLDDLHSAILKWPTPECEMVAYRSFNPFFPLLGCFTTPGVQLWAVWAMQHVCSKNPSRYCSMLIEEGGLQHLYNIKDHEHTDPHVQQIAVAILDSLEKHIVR
Text: (§1) To further investigate the binding specificity of ZER1 and ZYG11B, we synthesized a set of eight-residue peptides (sequence: XFLHVGQD, X = any free Nt-residue), and carried out isothermal titration calorimetry (ITC) assays to quantify their binding affinities for ZER1 and ZYG11B. […] The rest of Nt-residues were disallowed for the binding to both ZER1 and ZYG11B (Fig. 1e, and Supplementary Fig. 1c–f).
(§2) ZYG11B (residues 490–728) bearing an N-terminal SELF generated by a modified pET28-MKH8SUMO (Addgene Plasmid #79526) vector and ZER1 (residues 469–766) bearing an N-terminal MEEL sequence generated by pNIC-CH (Addgene Plasmid #26117) vector were used to perform isothermal titration calorimetry (ITC) assays, as previously described. Proteins (concentration 50–70 μM) and peptides (concentration 0.5–1.5 mM) solutions were prepared in an ITC buffer consisting of 20 mM Tris-HCl (pH 7.5) and 150 mM NaCl. The ITC measurements were recorded at 16 °C with a MicroCal PEAQ-ITC instrument (Malvern Panalytical). 1.5 μL of each peptide (except for first injection using 0.5 μL peptide) was titrated into a 300 μL cell of the protein with 120 s incubation time between the injections. The reference power was controlled at […]. The acquired data were analyzed using MicroCal PEAQ-ITC Analysis Software version 1.30. Each experiment was repeated at least twice independently with similar results.

[2] = target: T2, ZER1 W552A (residues 469–766) (Homo sapiens, UniProt Q7Z7L7, W552A); experiment: ITC of peptides with mutant ZER1 W552A; settings: mutant ZER1 residues 469–766, NB = no detectable binding
T2 construct: wild-type (WT) and mutant ZER1 (residues 469–766) titrated with SFLHVGQD peptide; made in house; host or cells: E. coli BL21 (DE3)
T2 sequence (Q7Z7L7 469-766 W552A): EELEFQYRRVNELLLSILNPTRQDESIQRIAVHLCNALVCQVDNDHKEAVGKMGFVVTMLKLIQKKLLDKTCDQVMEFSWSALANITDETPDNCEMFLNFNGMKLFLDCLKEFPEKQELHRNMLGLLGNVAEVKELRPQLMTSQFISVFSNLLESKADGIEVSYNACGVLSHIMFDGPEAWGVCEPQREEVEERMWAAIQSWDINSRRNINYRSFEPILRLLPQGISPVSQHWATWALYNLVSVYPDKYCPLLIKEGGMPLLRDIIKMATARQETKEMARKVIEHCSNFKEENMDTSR
Text: (§3) To verify the functional importance of the residues involved in substrate binding, we generated single-point mutants of the binding pocket residues in ZER1 and ZYG11B. […] In addition, mutating the third-residue-interacting N553 into alanine caused a significant reduction in substrate binding (Fig. 3e, and Supplementary Fig. 4a–c).
as §2

[3] = target: T3, ZER1 D556A (residues 469–766) (Homo sapiens, UniProt Q7Z7L7, D556A); experiment: ITC of peptides with mutant ZER1 D556A; type: binding; settings: mutant ZER1 residues 469–766
T3 construct: wild-type (WT) and mutant ZER1 (residues 469–766) titrated with SFLHVGQD peptide; made in house; host or cells: E. coli BL21 (DE3)
T3 sequence (Q7Z7L7 469-766 D556A): as the sequence (Q7Z7L7 469-766 W552A) above, with A84W, D88A counted along it
Text: as §3, §2

[4] = target: T4, ZER1 N597A (residues 469–766) (Homo sapiens, UniProt Q7Z7L7, N597A); experiment: ITC of peptides with mutant ZER1 N597A; settings: mutant ZER1 residues 469–766, NB = no detectable binding
T4 construct: wild-type (WT) and mutant ZER1 (residues 469–766) titrated with SFLHVGQD peptide; made in house; host or cells: E. coli BL21 (DE3)
T4 sequence (Q7Z7L7 469-766 N597A): as the sequence (Q7Z7L7 469-766 W552A) above, with A84W, N129A counted along it
Text: as §3, §2

[5] = target: T5, ZER1 E600A (residues 469–766) (Homo sapiens, UniProt Q7Z7L7, E600A); experiment: ITC of peptides with mutant ZER1 E600A; type: binding; settings: mutant ZER1 residues 469–766
T5 construct: wild-type (WT) and mutant ZER1 (residues 469–766) titrated with SFLHVGQD peptide; made in house; host or cells: E. coli BL21 (DE3)
T5 sequence (Q7Z7L7 469-766 E600A): as the sequence (Q7Z7L7 469-766 W552A) above, with A84W, E132A counted along it
Text: as §3, §2

ZER1 (residues 469–766) = target: T6, ZER1 (residues 469–766) (Homo sapiens, UniProt Q7Z7L7); experiment: ITC of peptides titrated into ZER1; type: binding; settings: wild-type ZER1 residues 469–766
T6 construct: made in house; host or cells: E. coli BL21 (DE3)
T6 sequence (Q7Z7L7 469-766): as the sequence (Q7Z7L7 469-766 W552A) above, with A84W counted along it
Text: as §1, §2

Kd [1]: > 100 µM
Substance: H-VFLHVGQD [VFLHVGQD]

Kd [2]: > 100 µM
Kd [3]: > 100 µM
Kd [4]: > 100 µM
Kd [5]: > 100 µM
Substance: SFLHVGQD [SFLHVGQD]

binding to ZER1, in words (ZER1 (residues 469–766)): readily bind
Substance: SGRGKQGGKA [H2A peptide]
